Experimental data taken from patent publication US9321993B2, “Tissue culture method for producing cartilage using trimethylamine N-oxide and chondroitinase” (The Trustees of Columbia University in the City of New York, priority 2010, dated 2016).

Legend:
[1] = system: Immature bovine chondrocytes; experiment: Stiffness (Young's modulus) of engineered constructs cultured with supplemented media, Example 1; assay type: cell-based; conditions: TMAO 180 or 55 mM from day 0; day 28 of culture
Protocol: Immature bovine chondrocytes were enzymatically isolated and encapsulated in 2% w/v type VII agarose (Sigma). Engineered cylindrical constructs were cultured in serum-free chondrogenic media (ITS+, ascorbic acid, dexamethasone, pen/strep) and transforming growth factor beta-3 (TGFβ3) for the first 14 days.
The culture media of some constructs were supplemented from day 0 with TMAO (180 or 55 mM), urea (360 or 90 mM) or TMAO+urea (combo: 360 mM urea and 180 mM TMAO which is the physiological ratio found in shark tissue).

[2] = system: Articular chondrocytes; experiment: Equilibrium Young's and dynamic modulus under 10% unconfined compression, Example 2; assay type: cell-based, bovine; conditions: for mechanical properties (Young's modulus) versus control group: day 28
Protocol: (§1) Articular chondrocytes were harvested from juvenile bovine wrist joints (2-4 weeks old), and digested for 8 hrs at 37° C. with Collagenase V (Sigma) to isolate chondrocytes. The cells were expanded for one passage in DMEM media containing 10% FBS, 1% PSAM, 5 ng/ml bFGF, 10 ng/ml PDGF, and 1 ng/ml of TGF-b1 (plating density=180 cells/cm^2) (see Ng et al. 2010 Tissue Eng Part A 16(3), 1041-1051). The passaged cells were seeded in 2% w/v agarose hydrogel scaffold (Type VII, Sigma Inc.) at a concentration of 30M cells/ml. Samples were cored (diameter=4 mm, thickness=2.34 mm) and cultured in chondrogenically-defined media (CM: DMEM with 0.1 uM dexamethasone, 40 mg/mL L-proline, 50 mg/mL ascorbate 2-phosphate, […] sodium pyruvate, 1×ITS+premix, 100 U/ml penicillin, and […] streptomycin and amphotericin B) supplemented with TGF-β3 for the first 14 days. Constructs grown without TMAO served as control.
(§2) Six culture medias were evaluated, with serum free media containing ascorbic acid and 10 ng/ml of TGF-b3 for the first 14 days used as the control (see Lima et al. 2007 Osteoarthritis Cartilage 15(9), 1025-1033). TMAO was added to the media at concentrations of 55 mM and 180 mM, and urea was added to the media at concentrations of 90 mM and 360 mM. The final group included a combination (combo) of TMAO (180 mM) and urea (360 mM).
(§3) The equilibrium Young's (Eγ) and dynamic modulus was determined under 10% unconfined compression. Biochemical analysis was performed to determine the GAG, hydroxyproline (OHP) and DNA content. GAG and OHP values were normalized to the DNA content and wet weight. Tested samples were fixed for histology and stained with Picosirius Red and Safranin-O to determine the distribution of collagen and GAG, respectively. Mechanical, biochemical and histological analysis was performed every two weeks (n=4/5). A two-way ANOVA (factors: culture day and treatment) was performed to evaluate the treatment for mechanical and biochemical analysis with a Bonferroni post hoc analysis.

[3] = system: Articular chondrocytes; experiment: Biochemical analysis (GAG, OHP) and histology of constructs, Example 2; assay type: cell-based, bovine
Protocol: as §1, §2, §3

[4] = system: Articular chondrocytes; experiment: Young's and dynamic modulus after transient application of TMAO, Example 3; assay type: cell-based, bovine; conditions: 50 mM TMAO for the first 14 days (transient); day 42
Protocol: as §1
(§4) The equilibrium Young's (Eγ) and dynamic modulus was determined under 10% unconfined compression. Biochemical analysis was performed to determine the GAG, hydroxyproline (OHP) and DNA content. GAG and OHP values were normalized to the DNA content and wet weight. Tested samples were fixed for histology and stained with Picosirius Red and Safranin-O to determine the distribution of collagen and GAG, respectively. […]

[5] = system: Articular chondrocytes; experiment: GAG and OHP content after transient application of TMAO, Example 3; assay type: cell-based, bovine
Protocol: as §1, §3
Culture media was supplemented with 0 mM, 5 mM, 50 mM, 100 mM or 200 mM of TMAO for the first 14 days of culture (transient application).
Methods are according to Example 2 unless otherwise indicated. Statistical analysis included a two-way ANOVA (factors: time & concentration) with a Bonferonni post-hoc test.

[6] = system: Articular chondrocytes; experiment: Equilibrium modulus of constructs digested with chondroitinase ABC, then cultured with CM or TMAO, Example 4; assay type: cell-based, bovine
Protocol: as §1, §3
(§5) Methods are according to Example 2 unless otherwise indicated.
Mature constructs were enzymatically digested for 48 hours at day 14 with 0.15 U/mL of chondroitinase ABC (chABC), which degrades proteoglycans, then cultured with CM or CM supplemented with 5 mM of TMAO. […] Following the digestion, constructs were cultured in either CM or CM supplemented with 5 mM TMAO. A Student's t-test was performed to compare properties of the constructs cultured in CM or CM supplemented with TMAO. Significance was set at ? =0.05.

[7] = system: Articular chondrocytes; experiment: Biochemical content of constructs digested with chondroitinase ABC, then cultured with CM or TMAO, Example 4; assay type: cell-based, bovine
Protocol: as §1, §4

[8] = system: nucleus pulposus (spine tissue) cells; experiment: GAG and OHP (collagen) content of nucleus pulposus micropellets, Example 5; assay type: cell-based
Protocol: as §3, §5
Micropellets (scaffold-free constructs comprised of aggregated cells only) consisting of nucleus pulposus (spine tissue) cells were cultured for […]. The media was supplement with either 5 mM or 50 mM TMAO. Micropellets cultured in CM were used as the control. Micropellets were cultured for 6 weeks and analyzed for biochemistry (i.e. GAG, DNA and OHP contents).

[9] = 5 mM TMAO after chABC digestion, by day 28, persisted to day 42
[10] = high concentration of urea (360 mM)
[11] = lower concentrations of urea (90 mM)

Question: What does the source list for `C[N+](C)(C)[O-]` [TMAO, Trimethylamine N-oxide]?
Answer: Young's modulus (stiffness) versus control group [1]: two-fold; mechanical properties (Young's modulus) versus control group ([2]; 55 mM TMAO): 2 ×; mechanical properties (Young's modulus) versus control group ([2]; 180 mM TMAO): 2 ×; normalized GAG content versus control ([3]; 55 mM TMAO, day 28): significantly greater than control; normalized collagen content versus control ([3]; 55 mM TMAO, day 28): significantly greater than control; histology: distribution of GAG and collagen throughout the thickness of the construct ([3]; 55 mM TMAO, day 28, Picosirius Red and Safranin-O): even distribution; Young's modulus versus control group [4]: significantly greater than the control group; dynamic modulus versus control group [4]: significantly greater than the control group; OHP content greater than the control values ([5]; 100 mM TMAO, day 28): approximately 50%; GAG content (normalized to wet weight) greater than control values ([5]; TMAO 5 mM, 50 mM and 100 mM, day 42): up to 17%; OHP content (normalized to the wet weight) versus control ([5]; TMAO groups, day 28, reaching significance for 50 mM and 100 mM): greater than the control; mechanical properties relative to CM alone [6, 9]: significantly greater; recovery of the mechanical properties ([6]; TMAO supplement following the chABC digestion, compared to the control): quicker recovery; EY (equilibrium Young's modulus) ([6]; day 42, CM with 5 mM TMAO after chABC digestion, CM group 115.6±38.1 kPa): 235.6±75.8 kPa; biochemical properties relative to CM alone [7, 9]: significantly greater; collagen content compared to the control ([7]; TMAO supplement following the chABC digestion): increases the collagen content; GAG production of the micropellets ([8]; 5 mM or 50 mM TMAO, normalized by DNA content at day 42 (FIG. 9A)): graded effect; increase in collagen production ([8]; CM supplemented with TMAO (5 mM or 50 mM), normalized by DNA content at day 42 (FIG. 9B)): 50%

Question: Which results are given for `NC(N)=O` [urea, reference compound]?
Answer: mechanical properties versus day 0 [2, 10]: did not increase from day 0; effect on mechanical properties [2, 11]: did not have adverse effects; biochemical properties versus day 0 [3, 10]: did not increase from day 0; effect on biochemical properties [3, 11]: did not have adverse effects
